In US11179391B2, “Compound with kinase inhibitory activity and preparation method and use thereof” (priority 2017, dated 2021):

Experiments:
CDK4/CycD3 = CDK4/CycD3 (Homo sapiens, UniProt P11802); assay: Determination of CDK activity (Caliper mobility shift, FAM-P8 peptide): CDK4; type: biochemical; settings: CDK4/CycD3; read-out: CDK4 enzymatic inhibitory activity (IC50)
In short: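 GST-CDK4(1-303)/GST-CycD3(1-292) was preincubated with compound for 10 min at room temperature, then FAM-P8 peptide and ATP were added; the reaction ran at 28 °C and was stopped with EDTA-containing stop buffer. Peptide conversion was read by Caliper mobility shift. A 10-point dilution series was fitted for IC50.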

CDK6/cycD3 = CDK6/cycD3 (Homo sapiens, UniProt Q00534); assay: Determination of CDK activity (Caliper mobility shift, FAM-P8 peptide): CDK6; type: biochemical; settings: CDK6/cycD3; read-out: CDK6 enzymatic inhibitory activity (IC50)
In short: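 GST-CDK6(1-326)/cycD3 with FAM-P8 peptide and ATP, after 10 min room-temperature enzyme–compound preincubation; reaction at 28 °C, then EDTA stop. Substrate conversion read by Caliper mobility shift; inhibition from no-compound and no-enzyme controls, IC50 fitted over 10-point dilution in DMSO.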

CDK1/CyclinB = CDK1/CyclinB (Homo sapiens, UniProt P06493); assay: Determination of CDK activity (Caliper mobility shift, FAM-P8 peptide): CDK1; type: biochemical; settings: CDK1/CyclinB; read-out: CDK1 enzymatic inhibitory activity (IC50)
CDK2/CycA2 = CDK2/CycA2 (Homo sapiens, UniProt P24941); assay: Determination of CDK activity (Caliper mobility shift, FAM-P8 peptide): CDK2; type: biochemical; settings: CDK2/CycA2; read-out: CDK2 enzymatic inhibitory activity (IC50)
CDK7/CyclinH/MAT1 = CDK7/CyclinH/MAT1 (Homo sapiens, UniProt P50613); assay: Determination of CDK activity (Caliper mobility shift, FAM-P8 peptide): CDK7; type: biochemical; settings: CDK7/CyclinH/MAT1; read-out: CDK7 enzymatic inhibitory activity (IC50)
In short: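 His-CDK7/GST-MAT1/cyclin H preincubated with compound (10-point series) 10 min at room temperature, then reacted with FAM-P8 peptide plus ATP at 28 °C for a set time before stopping. Peptide conversion read by Caliper mobility shift; converted to % inhibition vs controls and IC50 fitted.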

CDK9/cyclinTl = CDK9/cyclinTl (Homo sapiens, UniProt P50750); assay: Determination of CDK activity (Caliper mobility shift, FAM-P8 peptide): CDK9; type: biochemical; settings: CDK9/cyclinTl; read-out: CDK9 enzymatic inhibitory activity (IC50)
[1] = Pharmacokinetic study in rats; type: in vivo, Sprague-Dawley rats; settings: for F / Cmax / Tmax / clearance / half-life / AUC(0-t): male Sprague-Dawley rats; for F: iv 2 mg/kg and oral 5 mg/kg; for Cmax / Tmax / clearance / half-life / AUC(0-t): rat, plasma, study dosed iv 2 mg/kg and oral 5 mg/kg, route of this parameter not given; for AUC(0-t): read-out: AUC0-24 h
Protocol: Healthy adult Sprague-Dawley rats, male, 7-10 weeks old, weighing 240-270 g, provided by Beijing Vital River Laboratory Animal Technology Co., Ltd., with an animal certificate number of 1140070278736.
Test compounds of the invention: example 17, 33, 40, and 57.
Intravenous administration solvent system of compounds: 10% (V/V) NMP and 90% (20% (V/V)) SBE-β-CD in 16.667 mM PBS with a concentration of 1.0 mg/mL.
Oral administration solvent system of compounds: pure water system containing 0.1% hydroxyethyl cellulose and 0.5% Tween-80, with a concentration of 1 mg/mL.
Intravenous administration: 3 male Sprague-Dawley rats of each test compound were injected intravenously after fasting overnight, with a dose of 2 mg/kg, and the dosing volume was 2 mL/kg. […]
Before the administration, and after administration of 0.0833 (iv), 0.25, 0.5, 1, 2, 4, 8, 12, and 24 h, the jugular vein puncture (approximately 0.15 mL per time point) of each animal was performed by collecting blood from polypropylene tubes. All blood samples were transferred to pre-cooled EDTA-K2 test tubes or pre-cooled plastic microcentrifuge tubes containing 3 μL of 0.5 M EDTA-K2 as anticoagulant and placed on wet ice until centrifugation. Each collected blood was centrifuged at 4° C. for 15 minutes, and plasma was collected. All plasma would be stored in a freezer at about −80° C. until LCMS/MS detection.

[2] = test system: Human colorectal cancer Colo-205 cells; assay: Pharmacodynamic study on mouse Colo-205 model (subcutaneous xenograft); type: in vivo, BALB/c nude mice; settings: Colo-205 model, mesylate, 50 mg/kg PO × 28 days
Description: BALB/c nude mice, 6-8 weeks old, weighing 12-14 g, female, provided by Shanghai Lab Animal Research Center (Shanghai Xipuer-Beikai) with an animal certificate No: 2008001682093.
The experiment was started after 3-7 days in the experimental environment when the animals arrived. Animals were housed in IVC (independent air supply system) cages (Four animals per cage) in SPF grade experimental animal facilities. Each cage animal information card contained the number of animals in the cage, sex, strain, receiving date, dosing schedule, experiment number, group and start date of the experiment. All cages, bedding, and drinking water were sterilized before use and were updated twice a week.
4.3 Tumor Cell Inoculation Method
Human colorectal cancer Colo-205 cells (ATCC-CCL-222) were cultured in vitro in monolayer under the conditions of RPMI 1640 medium with 10% fetal bovine serum, 100 U/mL penicillin and 100 μg/mL streptomycin, and 37° C. 5% CO2 incubator. The passage was routinely digested with trypsin-EDTA twice a week. When the cell saturation was up to 80%-90% and reached the requirement, the cells were collected, counted and inoculated. 0.2 mL (5×10^6) Colo-205 cells were subcutaneously inoculated on the right back of each mouse, and mice were randomly grouped and dosed when the average tumor volume reached 163 mm^3.
4.14 mL of lactic acid was added to a large beaker containing 800 mL of deionized water, and the pH was adjusted to 4.0 with 5 N NaOH. Then the volume was fixed to 1,000 mL to obtain 50 mmol/L sodium lactate buffer.
The subcutaneous tumor volume of nude mice was measured 2-3 times a week, and the mice were weighed, and the data were recorded.
4.6 Analysis and Evaluation
Experimental evaluation index: the tumor growth inhibition rate TGI (%) or the relative tumor proliferation rate T/C (%) was used for evaluation, wherein T was the experimental group, and C was the vehicle group.

[3] = rat plasma, at the dose of 10 mg/kg

CDK1/CyclinB, sequence (P06493 whole entry): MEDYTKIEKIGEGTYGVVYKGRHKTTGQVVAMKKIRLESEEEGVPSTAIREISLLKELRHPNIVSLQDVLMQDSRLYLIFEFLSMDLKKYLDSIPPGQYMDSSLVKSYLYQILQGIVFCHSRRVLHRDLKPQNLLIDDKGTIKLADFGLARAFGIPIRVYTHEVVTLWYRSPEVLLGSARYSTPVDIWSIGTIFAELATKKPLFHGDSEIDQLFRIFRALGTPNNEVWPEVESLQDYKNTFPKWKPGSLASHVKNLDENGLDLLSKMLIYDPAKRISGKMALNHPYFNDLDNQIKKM
CDK1/CyclinB, sequence (P14635 whole entry partner): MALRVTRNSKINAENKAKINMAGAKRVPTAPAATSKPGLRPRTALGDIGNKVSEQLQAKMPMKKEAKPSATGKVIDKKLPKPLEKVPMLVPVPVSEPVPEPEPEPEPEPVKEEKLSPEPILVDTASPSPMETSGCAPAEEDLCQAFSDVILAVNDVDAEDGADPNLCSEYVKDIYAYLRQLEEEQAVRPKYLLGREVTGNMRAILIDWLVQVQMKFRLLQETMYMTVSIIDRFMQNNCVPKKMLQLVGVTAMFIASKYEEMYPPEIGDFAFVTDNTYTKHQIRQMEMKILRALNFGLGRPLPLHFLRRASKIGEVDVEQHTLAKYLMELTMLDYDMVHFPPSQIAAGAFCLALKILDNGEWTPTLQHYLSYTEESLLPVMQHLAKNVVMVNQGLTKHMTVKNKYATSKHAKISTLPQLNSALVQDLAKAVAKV
CDK7/CyclinH/MAT1, sequence (P50613 whole entry): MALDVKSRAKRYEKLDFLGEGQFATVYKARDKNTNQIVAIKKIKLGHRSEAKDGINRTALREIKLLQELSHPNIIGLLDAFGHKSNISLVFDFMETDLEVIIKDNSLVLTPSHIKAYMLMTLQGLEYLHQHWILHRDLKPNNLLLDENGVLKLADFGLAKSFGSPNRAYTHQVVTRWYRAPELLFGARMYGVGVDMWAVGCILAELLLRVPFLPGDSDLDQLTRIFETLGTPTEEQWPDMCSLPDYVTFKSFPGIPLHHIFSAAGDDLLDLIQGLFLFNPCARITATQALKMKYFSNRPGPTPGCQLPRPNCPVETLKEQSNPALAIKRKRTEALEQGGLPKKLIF
CDK7/CyclinH/MAT1, sequence (P51946 whole entry partner): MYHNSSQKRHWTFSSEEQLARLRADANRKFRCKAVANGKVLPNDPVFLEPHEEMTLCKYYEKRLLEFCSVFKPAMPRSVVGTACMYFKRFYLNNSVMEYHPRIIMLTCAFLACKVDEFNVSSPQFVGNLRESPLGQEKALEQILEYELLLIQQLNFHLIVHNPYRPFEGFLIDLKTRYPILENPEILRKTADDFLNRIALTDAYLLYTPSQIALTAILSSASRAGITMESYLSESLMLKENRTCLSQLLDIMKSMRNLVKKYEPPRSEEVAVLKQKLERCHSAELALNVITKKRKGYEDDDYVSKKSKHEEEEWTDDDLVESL
CDK7/CyclinH/MAT1, sequence (P51948 whole entry partner): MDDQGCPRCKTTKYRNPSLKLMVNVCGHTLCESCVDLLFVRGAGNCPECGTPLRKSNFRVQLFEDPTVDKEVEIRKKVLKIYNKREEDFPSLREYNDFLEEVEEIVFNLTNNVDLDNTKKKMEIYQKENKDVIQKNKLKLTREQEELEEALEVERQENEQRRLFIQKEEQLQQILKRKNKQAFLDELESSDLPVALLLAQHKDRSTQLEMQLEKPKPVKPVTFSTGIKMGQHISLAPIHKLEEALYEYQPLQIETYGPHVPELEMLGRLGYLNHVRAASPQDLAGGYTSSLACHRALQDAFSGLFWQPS
CDK9/cyclinTl, sequence (P50750 whole entry): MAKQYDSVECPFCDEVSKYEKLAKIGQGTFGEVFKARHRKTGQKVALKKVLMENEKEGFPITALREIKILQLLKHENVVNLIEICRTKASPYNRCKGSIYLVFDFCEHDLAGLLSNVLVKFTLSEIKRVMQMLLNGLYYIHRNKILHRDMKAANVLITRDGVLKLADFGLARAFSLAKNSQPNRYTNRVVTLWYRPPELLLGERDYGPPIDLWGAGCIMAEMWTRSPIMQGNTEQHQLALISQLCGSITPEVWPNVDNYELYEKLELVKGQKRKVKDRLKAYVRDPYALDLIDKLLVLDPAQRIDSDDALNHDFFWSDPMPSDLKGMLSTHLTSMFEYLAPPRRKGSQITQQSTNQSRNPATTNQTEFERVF
CDK9/cyclinTl, sequence (O60563 whole entry partner): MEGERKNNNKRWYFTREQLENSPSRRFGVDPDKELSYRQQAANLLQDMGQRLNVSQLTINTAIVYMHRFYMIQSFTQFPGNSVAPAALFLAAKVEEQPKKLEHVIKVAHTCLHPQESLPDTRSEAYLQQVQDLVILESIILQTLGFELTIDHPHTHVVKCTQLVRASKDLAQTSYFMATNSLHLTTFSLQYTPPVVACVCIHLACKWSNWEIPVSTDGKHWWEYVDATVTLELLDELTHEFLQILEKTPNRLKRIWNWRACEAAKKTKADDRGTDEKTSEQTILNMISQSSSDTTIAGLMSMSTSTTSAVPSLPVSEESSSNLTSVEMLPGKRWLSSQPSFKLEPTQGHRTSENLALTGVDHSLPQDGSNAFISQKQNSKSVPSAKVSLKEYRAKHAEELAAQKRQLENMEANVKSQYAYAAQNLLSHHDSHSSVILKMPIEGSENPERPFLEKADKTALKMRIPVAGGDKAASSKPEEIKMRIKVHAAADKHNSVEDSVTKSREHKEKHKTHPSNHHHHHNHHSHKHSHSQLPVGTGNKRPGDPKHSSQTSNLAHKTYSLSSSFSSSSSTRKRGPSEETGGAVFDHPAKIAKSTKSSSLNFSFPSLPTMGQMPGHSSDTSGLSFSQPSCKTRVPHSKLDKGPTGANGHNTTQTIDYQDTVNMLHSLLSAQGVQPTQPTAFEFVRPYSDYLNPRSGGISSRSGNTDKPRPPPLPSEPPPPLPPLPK
CDK6/cycD3, sequence (Q00534 whole entry): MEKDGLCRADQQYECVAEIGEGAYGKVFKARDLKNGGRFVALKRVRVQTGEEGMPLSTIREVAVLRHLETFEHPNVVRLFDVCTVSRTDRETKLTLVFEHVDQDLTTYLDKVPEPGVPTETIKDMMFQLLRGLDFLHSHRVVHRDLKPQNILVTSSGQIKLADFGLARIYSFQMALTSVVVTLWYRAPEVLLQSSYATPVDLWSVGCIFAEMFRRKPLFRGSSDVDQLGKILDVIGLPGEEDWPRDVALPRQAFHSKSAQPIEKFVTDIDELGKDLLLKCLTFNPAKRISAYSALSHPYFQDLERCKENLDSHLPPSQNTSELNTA
CDK6/cycD3, sequence (P30281 whole entry partner): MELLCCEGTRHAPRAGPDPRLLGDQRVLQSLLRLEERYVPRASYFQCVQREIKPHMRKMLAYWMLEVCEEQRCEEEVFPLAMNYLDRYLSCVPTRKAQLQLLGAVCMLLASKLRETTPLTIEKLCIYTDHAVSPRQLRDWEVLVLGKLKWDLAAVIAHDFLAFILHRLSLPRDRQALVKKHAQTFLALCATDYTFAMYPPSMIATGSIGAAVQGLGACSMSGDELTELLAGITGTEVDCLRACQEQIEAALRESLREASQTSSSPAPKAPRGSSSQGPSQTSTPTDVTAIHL
CDK4/CycD3, sequence (P11802 whole entry): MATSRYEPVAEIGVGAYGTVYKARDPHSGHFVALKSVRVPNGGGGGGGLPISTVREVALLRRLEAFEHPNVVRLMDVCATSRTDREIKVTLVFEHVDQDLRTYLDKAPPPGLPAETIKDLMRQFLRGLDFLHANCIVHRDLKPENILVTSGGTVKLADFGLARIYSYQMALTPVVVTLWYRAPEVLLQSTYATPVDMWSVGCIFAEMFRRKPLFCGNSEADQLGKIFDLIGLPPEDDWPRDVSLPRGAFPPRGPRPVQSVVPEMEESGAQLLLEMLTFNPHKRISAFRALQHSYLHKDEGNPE
CDK4/CycD3, sequence (P30281 whole entry partner): as the sequence (P30281 whole entry partner) above

Structure (SMILES)	IC50 (CDK4/CycD3) [nM]	IC50 (CDK6/cycD3) [nM]	IC50 (CDK1/CyclinB) [nM]	IC50 (CDK2/CycA2) [nM]	IC50 (CDK7/CyclinH/MAT1) [nM]	IC50 (CDK9/cyclinTl) [nM]	F [1] [%]	Cmax [1] [ng/mL]	Tmax [1] [h]	clearance [1] [mL/min/kg]	half-life [1] [h]	AUC(0-t) [1] [ng·h/mL]	Tumor volume (day 0) ([2]; baseline at start of dosing) [mm^3]	Tumor volume (day 28) [2] [mm^3]	TGI tumor growth inhibition rate ([2]; day 28) [%]	clearance in rat plasma (in words) [1, 3]	half-life in rat plasma (in words) [1, 3]	level of exposure at 24 h in rat plasma (in words) [1, 3]
CCN1CCC(C(O)c2ccc(Nc3ncc(F)c(-c4cc(F)c5nc(C)n(C(C)C)c5c4)n3)nc2)CC1 (single isomer, unassigned) [Example 40, (R or S)-(1-ethylpiperidin-4-yl)(6-((5-fluoro-4-(4-fluoro-1-isopropyl-2-methyl-1H-benzo [d]imidazol-6-yl)pyrimidin-2-yl)amino)pyridin-3-yl) methanol]	< 100	< 100	< 100	< 100	500 to 1000	< 100	13.3	12.9	4	72.8	11.9	132						
CCN1CCN(Cc2ccc(Nc3ncc(F)c(-c4cc(F)c5nc(C)n(C(C)C)c5c4)n3)nc2)CC1 [Abemaciclib, reference compound]													198	749	74.5			
C=C(c1ccc(Nc2ncc(F)c(-c3cc(F)c4nc(C)n(C(C)C)c4c3)n2)nc1)C1CCN(CC)CC1 [Example 33, N-(5-(1-(1-ethylpiperidin-4-yl)vinyl)pyridin-2-yl)-5-fluoro-4-(4-fluoro-1-isopropyl-2-methyl-1H-benzo[d]imidazol-6-yl) pyrimidin-2-amine]	< 100	< 100	100 to 500	< 100	1000 to 10000	< 100	43.7	161	8	12.1	8.19	2570				lower clearance	longer half-life	high level of exposure
